Experimental data as given in patent US8129417B2, “Substituted octahydrocyclopenta[C]pyrrol-4-amines as calcium channel blockers” (Abbott Laboratories, priority 2008, dated 2012).

Biological target: human Cav2.2 (Homo sapiens, UniProt Q00975)
Assay: Assessment of calcium channel activity using FLIPR (Ca2+ influx in IMR32 cells)
Type: cell-based
Settings: 2 μM nifedipine, depolarized with 80 mM KCl
How it was run: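 IMR32 neuroblastoma cells seeded at 1-1.2×10^5 cells/well and grown 48 h at 37 °C before FLIPR Ca2+ influx read. Percent inhibition at each concentration vs no-inhibitor activity; IC50 by non-linear sigmoidal dose-response fit.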

[1] = 60 minute pre-incubation with compound
[2] = 3 minute pre-incubation with compound (*)

Sequence of human Cav2.2 (Q00975 whole entry): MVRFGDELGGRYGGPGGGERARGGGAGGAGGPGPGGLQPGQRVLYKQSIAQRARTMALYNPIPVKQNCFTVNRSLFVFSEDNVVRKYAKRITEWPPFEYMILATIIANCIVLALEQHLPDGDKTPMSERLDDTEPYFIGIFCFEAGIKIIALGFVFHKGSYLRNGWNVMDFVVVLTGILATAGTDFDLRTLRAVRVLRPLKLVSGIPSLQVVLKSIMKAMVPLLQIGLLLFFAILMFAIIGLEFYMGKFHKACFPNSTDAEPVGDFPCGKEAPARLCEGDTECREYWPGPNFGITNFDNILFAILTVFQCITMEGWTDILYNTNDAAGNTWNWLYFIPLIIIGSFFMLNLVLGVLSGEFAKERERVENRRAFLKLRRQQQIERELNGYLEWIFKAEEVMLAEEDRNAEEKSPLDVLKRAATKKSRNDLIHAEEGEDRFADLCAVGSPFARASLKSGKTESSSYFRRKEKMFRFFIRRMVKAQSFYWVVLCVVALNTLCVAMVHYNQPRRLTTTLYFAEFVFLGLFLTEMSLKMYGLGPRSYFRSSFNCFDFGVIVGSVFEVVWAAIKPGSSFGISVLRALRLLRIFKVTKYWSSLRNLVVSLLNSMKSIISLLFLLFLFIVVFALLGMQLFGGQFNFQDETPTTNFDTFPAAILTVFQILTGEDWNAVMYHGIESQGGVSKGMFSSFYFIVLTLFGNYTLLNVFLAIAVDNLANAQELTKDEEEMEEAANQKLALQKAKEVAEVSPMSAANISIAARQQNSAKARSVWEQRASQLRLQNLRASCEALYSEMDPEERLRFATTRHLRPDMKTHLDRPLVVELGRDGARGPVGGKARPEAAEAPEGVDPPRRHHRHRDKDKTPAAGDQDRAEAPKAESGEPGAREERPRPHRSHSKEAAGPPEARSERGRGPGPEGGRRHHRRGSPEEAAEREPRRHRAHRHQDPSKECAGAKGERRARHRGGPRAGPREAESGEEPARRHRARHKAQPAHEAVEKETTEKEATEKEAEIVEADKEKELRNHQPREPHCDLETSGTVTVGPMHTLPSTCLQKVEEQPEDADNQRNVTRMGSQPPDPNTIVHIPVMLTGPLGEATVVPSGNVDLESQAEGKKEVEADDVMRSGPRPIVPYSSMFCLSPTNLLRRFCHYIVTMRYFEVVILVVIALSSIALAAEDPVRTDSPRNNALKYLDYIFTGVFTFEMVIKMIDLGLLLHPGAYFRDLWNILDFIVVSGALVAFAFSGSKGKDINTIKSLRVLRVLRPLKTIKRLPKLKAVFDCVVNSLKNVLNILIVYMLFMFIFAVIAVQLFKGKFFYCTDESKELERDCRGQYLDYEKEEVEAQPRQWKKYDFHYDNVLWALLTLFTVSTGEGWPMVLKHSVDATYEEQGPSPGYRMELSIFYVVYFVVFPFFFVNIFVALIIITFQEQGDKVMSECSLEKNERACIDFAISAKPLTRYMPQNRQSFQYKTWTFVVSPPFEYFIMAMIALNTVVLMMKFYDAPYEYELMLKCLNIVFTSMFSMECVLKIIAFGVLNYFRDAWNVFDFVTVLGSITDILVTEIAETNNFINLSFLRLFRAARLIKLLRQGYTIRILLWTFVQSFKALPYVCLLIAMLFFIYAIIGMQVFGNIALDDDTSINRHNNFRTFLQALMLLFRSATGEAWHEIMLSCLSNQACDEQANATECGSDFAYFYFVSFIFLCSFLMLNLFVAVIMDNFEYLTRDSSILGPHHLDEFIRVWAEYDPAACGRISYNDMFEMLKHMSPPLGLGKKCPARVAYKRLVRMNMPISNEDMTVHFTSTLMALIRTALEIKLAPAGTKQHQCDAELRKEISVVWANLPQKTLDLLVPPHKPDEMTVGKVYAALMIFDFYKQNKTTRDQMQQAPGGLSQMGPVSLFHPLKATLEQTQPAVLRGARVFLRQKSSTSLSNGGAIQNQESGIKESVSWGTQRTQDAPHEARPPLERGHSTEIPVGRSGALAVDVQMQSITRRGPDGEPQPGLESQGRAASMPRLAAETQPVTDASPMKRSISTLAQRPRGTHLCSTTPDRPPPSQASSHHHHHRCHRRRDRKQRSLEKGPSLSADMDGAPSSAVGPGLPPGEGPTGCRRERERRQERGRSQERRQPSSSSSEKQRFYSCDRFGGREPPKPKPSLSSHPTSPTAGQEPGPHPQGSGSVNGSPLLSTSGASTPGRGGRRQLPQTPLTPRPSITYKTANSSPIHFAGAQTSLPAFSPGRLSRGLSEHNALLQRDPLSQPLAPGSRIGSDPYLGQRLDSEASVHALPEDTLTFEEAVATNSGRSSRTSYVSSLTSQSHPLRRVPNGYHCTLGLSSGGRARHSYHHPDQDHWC
Sequence of human Cav2.2 (P54289 25-946 partner limits assumed): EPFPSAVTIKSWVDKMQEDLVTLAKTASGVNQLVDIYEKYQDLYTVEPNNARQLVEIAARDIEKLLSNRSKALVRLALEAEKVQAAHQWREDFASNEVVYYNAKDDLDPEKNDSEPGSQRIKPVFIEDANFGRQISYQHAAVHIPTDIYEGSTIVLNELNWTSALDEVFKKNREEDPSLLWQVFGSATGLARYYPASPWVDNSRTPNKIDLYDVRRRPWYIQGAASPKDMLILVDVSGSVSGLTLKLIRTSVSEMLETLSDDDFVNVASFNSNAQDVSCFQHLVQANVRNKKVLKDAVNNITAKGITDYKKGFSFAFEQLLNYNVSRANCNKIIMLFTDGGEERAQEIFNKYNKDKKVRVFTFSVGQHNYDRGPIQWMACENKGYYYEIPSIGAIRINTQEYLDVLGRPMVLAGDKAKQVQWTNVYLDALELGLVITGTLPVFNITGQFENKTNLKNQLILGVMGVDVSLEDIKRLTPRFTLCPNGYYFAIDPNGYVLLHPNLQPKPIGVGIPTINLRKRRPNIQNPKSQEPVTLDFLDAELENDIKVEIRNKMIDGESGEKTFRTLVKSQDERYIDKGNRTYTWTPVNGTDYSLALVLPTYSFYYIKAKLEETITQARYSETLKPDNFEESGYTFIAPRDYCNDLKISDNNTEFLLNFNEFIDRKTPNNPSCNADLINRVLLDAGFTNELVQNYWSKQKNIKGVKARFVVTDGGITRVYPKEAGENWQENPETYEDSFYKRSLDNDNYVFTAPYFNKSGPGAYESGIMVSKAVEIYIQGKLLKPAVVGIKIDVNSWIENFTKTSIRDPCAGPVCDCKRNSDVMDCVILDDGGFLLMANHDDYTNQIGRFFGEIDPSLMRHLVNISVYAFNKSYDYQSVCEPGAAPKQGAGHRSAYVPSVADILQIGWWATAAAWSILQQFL
Sequence of human Cav2.2 (P54289 947-1103 partner limits assumed): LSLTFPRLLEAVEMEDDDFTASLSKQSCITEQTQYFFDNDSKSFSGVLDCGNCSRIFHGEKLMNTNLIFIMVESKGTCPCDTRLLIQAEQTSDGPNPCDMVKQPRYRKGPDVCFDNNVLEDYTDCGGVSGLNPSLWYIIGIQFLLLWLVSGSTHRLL
Sequence of human Cav2.2 (P54284 whole entry partner): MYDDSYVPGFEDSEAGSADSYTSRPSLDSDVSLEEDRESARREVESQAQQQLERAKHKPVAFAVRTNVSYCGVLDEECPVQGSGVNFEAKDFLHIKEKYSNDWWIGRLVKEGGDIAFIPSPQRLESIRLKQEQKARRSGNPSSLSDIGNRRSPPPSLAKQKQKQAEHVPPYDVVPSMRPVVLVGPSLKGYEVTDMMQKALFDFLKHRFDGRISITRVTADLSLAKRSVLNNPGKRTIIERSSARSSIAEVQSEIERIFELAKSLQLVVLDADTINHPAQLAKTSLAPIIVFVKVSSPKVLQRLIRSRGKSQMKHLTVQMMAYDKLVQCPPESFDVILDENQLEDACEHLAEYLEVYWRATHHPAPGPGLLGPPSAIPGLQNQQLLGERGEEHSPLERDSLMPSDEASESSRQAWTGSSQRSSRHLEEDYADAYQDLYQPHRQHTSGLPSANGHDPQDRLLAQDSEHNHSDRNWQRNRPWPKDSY

IC50 [1] [nM] | IC50 [2] [nM] | SMILES
– | 5300 | CC(C)C(C(=O)N[C@H]1CC[C@@H]2CN(Cc3cccc(C#N)c3)C[C@@H]21)c1ccccc1 (stereo partly drawn) [Example 97, N-[(3aR,4S,6aS)-2-(3-cyanobenzyl)octahydrocyclopenta[c]pyrrol-4-yl]-3-methyl-2-phenylbutanamide]
600 | – | O=C(CC(c1ccccc1)c1ccccc1)N[C@@H]1CC[C@H]2CN(Cc3cccc(C(F)(F)F)c3)C[C@H]21 (relative stereo) [Example 141, 3,3-diphenyl-N-{(3aS*,4R*,6aR*)-2-[3-(trifluoromethyl)benzyl]octahydrocyclopenta[c]pyrrol-4-yl}propanamide]
2240 | – | CN[C@@H](CC(C)C)C(=O)N[C@@H]1CC[C@H]2CN(C(c3ccccc3)c3ccccc3)C[C@H]21 [Example 469, N^1-[(3aS,4R,6aR)-2-benzhydryloctahydrocyclopenta[c]pyrrol-4-yl]-N^2-methyl-L-leucinamide]
1260 | – | CN[C@@H](CC(C)(C)C)C(=O)N(C1CC1)[C@H]1CC[C@@H]2CN(S(=O)(=O)c3ccc(C(F)(F)F)cc3)C[C@@H]21 [Example 433, N^1-cyclopropyl-N^2,4-dimethyl-N^1-((3aR,4S,6aS)-2-{[4-(trifluoromethyl)phenyl]sulfonyl}octahydrocyclopenta[c]pyrrol-4-yl)-L-leucinamide]
14200 | – | CC(C)C(C(=O)N[C@@H]1CC[C@H]2CN(Cc3ccccc3)C[C@H]21)C(C)C [Example 235, N-[(3aS,4R,6aR)-2-benzyloctahydrocyclopenta[c]pyrrol-4-yl]-2-isopropyl-3-methylbutanamide]
2100 | – | CCC[C@@H](C(=O)N[C@H]1CC[C@@H]2CN(Cc3cccc(C(F)(F)F)c3)C[C@@H]21)N(C)C(=O)OC(C)(C)C [Example 313, tert-butyl methyl((S)-1-oxo-1-((3aR,4S,6aS)-2-(3-(trifluoromethyl)benzyl)octahydrocyclopenta[c]pyrrol-4-ylamino)pentan-2-yl)carbamate]
3930 | – | CC(C)C[C@H](NC(=O)OC(C)(C)C)C(=O)N[C@H]1CC[C@@H]2CN(Cc3ccccc3)C[C@@H]21 [Example 221, tert-butyl(S)-1-((3aR,4S,6aS)-2-benzyloctahydrocyclopenta[c]pyrrol-4-ylamino)-4-methyl-1-oxopentan-2-ylcarbamate]
1310 | – | CCCCN[C@@H](CC(C)(C)C)C(=O)N[C@H]1CC[C@@H]2CN(S(=O)(=O)c3ccc(C(F)(F)F)cc3)C[C@@H]21 [Example 476, N^2-butyl-4-methyl-N^1-((3aR,4S,6aS)-2-{[4-(trifluoromethyl)phenyl]sulfonyl}octahydrocyclopenta[c]pyrrol-4-yl)-L-leucinamide]
2570 | – | CCC[C@H](NC)C(=O)N[C@H]1CC[C@@H]2CN(S(=O)(=O)c3ccc(Br)c(C(F)(F)F)c3)C[C@@H]21 [Example 541, N^1-((3aR,4S,6aS)-2-{[4-bromo-3-(trifluoromethyl)phenyl]sulfonyl}octahydrocyclopenta[c]pyrrol-4-yl)-N^2-methyl-L-norvalinamide]
4820 | – | CCN[C@H]1CC[C@@H]2CN(S(=O)(=O)c3ccc(C(F)(F)F)cc3Cl)C[C@@H]21 [Example 293, (3aR,4S,6aS)-2-{[2-chloro-4-(trifluoromethyl)phenyl]sulfonyl}-N-ethyloctahydrocyclopenta[c]pyrrol-4-amine]
– | 1300 | O=C(N[C@@H]1CC[C@H]2CN(Cc3ccccc3)C[C@H]21)C1(c2ccccc2)CCCCC1 (relative stereo) [Example 10, N-[(3aS*,4R*,6aR*)-2-benzyloctahydrocyclopenta[c]pyrrol-4-yl]-1-phenylcyclohexanecarboxamide]
480 | – | CN(C(=O)OC(C)(C)C)[C@@H](CC(C)(C)C)C(=O)N[C@H]1CC[C@@H]2CN(S(=O)(=O)c3cccc(C(F)(F)F)c3)C[C@@H]21 [Example 336, tert-butyl(S)-4,4-dimethyl-1-oxo-1-((3aR,4S,6aS)-2-(3-(trifluoromethyl)phenylsulfonyl)octahydrocyclopenta[c]pyrrol-4-ylamino)pentan-2-yl(methyl)carbamate]

The remaining lines, values behind:

SMILES | IC50 [1] [nM] | IC50 [2] [nM]
CC(C)[C@@H](C(=O)N[C@@H]1CC[C@H]2CN(S(=O)(=O)c3cccc(C(F)(F)F)c3)C[C@H]21)N(C)C(=O)OC(C)(C)C [Example 340, tert-butyl methyl((S)-3-methyl-1-oxo-1-((3aS,4R,6aR)-2-(3-(trifluoromethyl)phenylsulfonyl)octahydrocyclopenta[c]pyrrol-4-ylamino)butan-2-yl)carbamate] | 1030 | –
CC(Cc1ccccc1)C(=O)N[C@H]1CC[C@@H]2CN(Cc3ccccc3)C[C@@H]21 (stereo partly drawn) [Example 51, N-[(3aR,4S,6aS)-2-benzyloctahydrocyclopenta[c]pyrrol-4-yl]-2-methyl-3-phenylpropanamide] | – | 15200
CC(C)(C)C[C@H](NC(=O)OC(C)(C)C)C(=O)N[C@H]1CC[C@@H]2CN(S(=O)(=O)c3ccc(C(F)(F)F)cc3)C[C@@H]21 [Example 344, tert-butyl(S)-4,4-dimethyl-1-oxo-1-((3aR,4S,6aS)-2-(4-(trifluoromethyl)phenylsulfonyl)octahydrocyclopenta[c]pyrrol-4-ylamino)pentan-2-ylcarbamate] | 990 | –
O=C(N[C@H]1CC[C@H]2CN(CCCc3cccc(F)c3)C[C@H]21)C(C1CCCCC1)C1CCCCC1 [Example 68, 2,2-dicyclohexyl-N-{(3aS,4S,6aR)-2-[3-(3-fluorophenyl)propyl]octahydrocyclopenta[c]pyrrol-4-yl}acetamide] | 1700 | –
CC(C)[C@@H](C(=O)N[C@H]1CC[C@@H]2CN(S(=O)(=O)c3cccc(C(F)(F)F)c3)C[C@@H]21)N(C)C(=O)OC(C)(C)C [Example 273, tert-butyl methyl((S)-3-methyl-1-oxo-1-((3aR,4S,6aS)-2-(3-(trifluoromethyl)phenylsulfonyl)octahydrocyclopenta[c]pyrrol-4-ylamino)butan-2-yl)carbamate] | 180 | –
CC(C)C[C@H](NS(C)(=O)=O)C(=O)N[C@H]1CC[C@@H]2CN(Cc3ccccc3)C[C@@H]21 [Example 242, N^1-[(3aR,4S,6aS)-2-benzyloctahydrocyclopenta[c]pyrrol-4-yl]-N^2-(methylsulfonyl)-L-leucinamide] | 7920 | –
CCC[C@@H](C(=O)N[C@H]1CC[C@@H]2CN(S(=O)(=O)c3cccc(C(F)(F)F)c3)C[C@@H]21)N(C)C(=O)OC(C)(C)C [Example 278, tert-butyl methyl((S)-1-oxo-1-((3aR,4S,6aS)-2-(3-(trifluoromethyl)phenylsulfonyl)octahydrocyclopenta[c]pyrrol-4-ylamino)pentan-2-yl)carbamate] | 340 | –
CCC[C@H](NC)C(=O)N[C@H]1CC[C@@H]2CN(S(=O)(=O)c3cccc(C#N)c3)C[C@@H]21 [Example 546, N^1-{(3aR,4S,6aS)-2-[(3-cyanophenyl)sulfonyl]octahydrocyclopenta[c]pyrrol-4-yl}-N^2-methyl-L-norvalinamide] | 6320 | –
CC(C)C[C@@H](C(=O)N[C@@H]1CC[C@H]2CN(S(=O)(=O)c3cccc(C(F)(F)F)c3)C[C@H]21)N(C)C [Example 512, N^2,N^2-dimethyl-N^1-((3aS,4R,6aR)-2-{[3-(trifluoromethyl)phenyl]sulfonyl}octahydrocyclopenta[c]pyrrol-4-yl)-L-leucinamide] | 470 | –
